These results are taken from US20230087118A1, “IMIDAZO[1,2-a][sequence] DERIVATIVES AND THEIR USE IN THE TREATMENT OF DISEASE” (priority 2019, published 2023).

Counter-ions that a name gives are not always drawn.

One experiment deals with T1, IRAK4 (Homo sapiens, UniProt Q9NWZ3).
T1 sequence (Q9NWZ3 1-460): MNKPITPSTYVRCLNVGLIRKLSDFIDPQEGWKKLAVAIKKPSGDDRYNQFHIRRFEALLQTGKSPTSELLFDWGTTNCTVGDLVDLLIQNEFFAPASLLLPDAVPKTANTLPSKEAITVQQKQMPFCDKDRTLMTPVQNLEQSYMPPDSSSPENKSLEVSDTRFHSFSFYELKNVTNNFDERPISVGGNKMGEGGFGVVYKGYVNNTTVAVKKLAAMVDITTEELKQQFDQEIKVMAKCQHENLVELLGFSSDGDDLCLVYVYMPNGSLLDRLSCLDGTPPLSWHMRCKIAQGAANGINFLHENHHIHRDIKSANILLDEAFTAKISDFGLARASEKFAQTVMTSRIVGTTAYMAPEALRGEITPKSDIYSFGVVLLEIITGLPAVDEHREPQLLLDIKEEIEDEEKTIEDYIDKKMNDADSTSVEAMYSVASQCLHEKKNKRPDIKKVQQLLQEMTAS
Briefly: biochemical.
Conditions: not given
`CC12CC(c3cn4cc(C(=O)Nc5cccc(C(F)F)n5)ncc4n3)(CO1)C2` [Example 334, N-(6-(Difluoromethyl)pyridin-2-yl)-2-(1-methyl-2-oxabicyclo[2.1.1]hexan-4-yl)imidazo[1,2-a]pyrazine-6-carboxamide] had an IC50 of 0.0599 µM.
Still for that read-out and setting: the same measure for `COc1ncccc1NC(=O)c1cn2cc(C3CC3)nc2cc1OC1CCCC1` [Example 464, 7-(Cyclopentyloxy)-2-cyclopropyl-N-(2-methoxypyridin-3-yl)imidazo[1,2-a]pyridine-6-carboxamide]: 0.0081 µM; for `COc1cc2nc(C3CCOCC3)cn2cc1C(=O)Nc1cccn(C)c1=O` [Example 183]: 0.0069 µM; for `CC(C)Oc1nc2nc(C34COC(C)(C3)C4)cn2cc1C(=O)Nc1ccn(C(F)(F)F)n1` [Example 362, 7-Isopropoxy-2-(1-methyl-2-oxabicyclo[2.1.1]hexan-4-yl)-N-(1-(trifluoromethyl)-1H-pyrazol-3-yl)imidazo[1,2-a]pyrimidine-6-carboxamide]: 0.0082 µM.
On the same count and under the same terms, the value for `CC(C)Oc1nc(C(=O)Nc2ccn(C)n2)cn2cc(C34CCC(C)(C3)OC4)nc12` (stereo not drawn) [Example 240] was 0.0023 µM; that for `CC(C)Oc1nc2nc(C34COC(C)(C3)C4)cn2cc1C(=O)Nc1cccc(F)c1Cl` [Example 399, N-(2-chloro-3-fluorophenyl)-7-isopropoxy-2-(1-methyl-2-oxabicyclo[2.1.1]hexan-4-yl)imidazo[1,2-a]pyrimidine-6-carboxamide] was 0.003 µM; that for `CC(C)Oc1cc2nc(C34CCC(C)(C3)OC4)cn2cc1C(=O)Nc1cccc(F)c1F` (stereo not drawn) [Example 515, N-(2,3-difluorophenyl)-7-isopropoxy-2-(1-methyl-2-oxabicyclo[2.2.1]heptan-4-yl)imidazo[1,2-a]pyridine-6-carboxamide] was 0.0014 µM.
As for `C[C@]12CC[C@](c3cn4cc(C(=O)Nc5cccc(C(F)F)n5)cc(OC(F)F)c4n3)(CO1)C2` (single isomer, unassigned) [Example 585], the IC50 was 0.0115 µM.
Same read-out and setting: the value for `CCn1cccc(NC(=O)c2cn3cc(C45CCC(C)(C4)OC5)nc3cc2OC2CCC2)c1=O` (stereo not drawn) [Example 535, 7-Cyclobutoxy-N-(1-ethyl-2-oxo-1,2-dihydropyridin-3-yl)-2-(1-methyl-2-oxabicyclo[2.2.1]heptan-4-yl)imidazo[1,2-a]pyridine-6-carboxamide] was 0.0011 µM; that for `CC(C)Oc1cc2nc([C@@]34CC[C@@](C)(C3)OC4)cn2cc1C(=O)Nc1cnn2cccnc12` (single isomer, unassigned) [Example 615] was 0.0002 µM.
Same read-out and setting: the value for `C[C@@H](Oc1cc2nc(C34COC(C)(C3)C4)cn2cc1C(=O)Nc1cccc(C(F)F)n1)C(F)(F)F` (single isomer, unassigned) [Example 618] was 0.0006 µM.
On the same count and under the same terms, the value for `CC(C)Oc1cc2nc(C34COC(C)(C3)C4)cn2cc1C(=O)Nc1cccnc1OC(F)F` [Example 222] was 0.0081 µM; that for `CCOc1cc2nc([C@@H]3C[C@H]3F)cn2cc1C(=O)Nc1cccc(OC)n1` (single isomer, unassigned) [Example 67] was 0.0397 µM; that for `COc1cc2nc(C3CCOCC3)cn2cc1C(=O)Nc1cccn(C(C)C)c1=O` [Example 192] was 0.0429 µM.
`COc1cc2nc(C3CCOCC3)cn2cc1C(=O)Nc1cccnc1OCC(F)F` [Example 196] displayed an IC50 of 0.0091 µM.
On the same count and under the same terms, the value for `CC12CC(c3cn4cc(C(=O)Nc5cnn6cccnc56)c(OC5CCC5)nc4n3)(CO1)C2` [Example 371, 7-Cyclobutoxy-2-(1-methyl-2-oxabicyclo[2.1.1]hexan-4-yl)-N-(pyrazolo[1,5-a]pyrimidin-3-yl)imidazo[1,2-a]pyrimidine-6-carboxamide] was 0.0003 µM.
Still for that read-out and setting: the same measure for `Cn1cc(-c2cccc(NC(=O)c3cn4cc(C56CCC(C)(C5)OC6)nc4cc3OC3CCC3)n2)cn1` (stereo not drawn) [Example 542, 7-Cyclobutoxy-N-(6-(1-methyl-1H-pyrazol-4-yl)pyridin-2-yl)-2-(1-methyl-2-oxabicyclo[2.2.1]heptan-4-yl)imidazo[1,2-a]pyridine-6-carboxamide]: 0.0001 µM; for `COc1ccc2ncc(NC(=O)c3cn4cc(C56COC(C)(C5)C6)nc4cc3OC(C)C)n2n1` [Example 301, 7-Isopropoxy-N-(6-methoxyimidazo[1,2-b]pyridazin-3-yl)-2-(1-methyl-2-oxabicyclo[2.1.1]hexan-4-yl)imidazo[1,2-a]pyridine-6-carboxamide]: 0.0066 µM; for `CCOc1nc2nc(C34CCC(C)(CC3)OC4)cn2cc1C(=O)Nc1ccn(C)n1` [Example 423, 7-Ethoxy-N-(1-methyl-1H-pyrazol-3-yl)-2-(1-methyl-2-oxabicyclo[2.2.2]octan-4-yl)imidazo[1,2-a]pyrimidine-6-carboxamide]: 0.0054 µM.
Still for that read-out and setting: the value for `COc1cc2nc(C3CCOCC3)cn2cc1C(=O)Nc1cccc(C)n1` [Example 116] was 0.0106 µM.
`CC(C)Oc1cc2nc(C34CCC(C)(C3)OC4)cn2cc1C(=O)Nc1nc(C(F)(F)F)cs1` (stereo not drawn) [Example 503, 7-Isopropoxy-2-(1-methyl-2-oxabicyclo[2.2.1]heptan-4-yl)-N-(4-(trifluoromethyl)thiazol-2-yl)imidazo[1,2-a]pyridine-6-carboxamide] returned an IC50 of 0.0055 µM.
The compound `CCC(C)Oc1nc2nc(C34COC(CF)(C3)C4)cn2cc1C(=O)Nc1cnn2cc(C)cnc12` (single isomer, unassigned) [Example 644] had an IC50 of 0.0012 µM.
Same read-out and setting: the value for `CC(C)Oc1cc2nc(C34CCC(C)(C3)OC4)cn2cc1C(=O)Nc1nc(C(F)F)cs1` (stereo not drawn) [Example 516, N-(4-(difluoromethyl)thiazol-2-yl)-7-isopropoxy-2-(1-methyl-2-oxabicyclo[2.2.1]heptan-4-yl)imidazo[1,2-a]pyridine-6-carboxamide] was 0.0015 µM.

The experiment is the same for the next values; noted with them: IRAK4 Biochemical Assay (1 mM ATP, 2 h) IC50 (μM), 1 mM ATP, 2 h, 100 pM IRAK4.
Compound `CC(C)Oc1cc2nc(C34COC(C)(C3)C4)cn2cc1C(=O)Nc1ccno1` [Example 317, 7-Isopropoxy-N-(isoxazol-5-yl)-2-(1-methyl-2-oxabicyclo[2.1.1]hexan-4-yl)imidazo[1,2-a]pyridine-6-carboxamide trifluoroacetate] came in with an IC50 of 0.022 µM.
Still for that read-out and setting: the value for `CC(C)Oc1cc2nc(C34COC(C)(C3)C4)cn2cc1C(=O)Nc1ccn(C)n1` [Example 297, 7-Isopropoxy-N-(1-methyl-1H-pyrazol-3-yl)-2-(1-methyl-2-oxabicyclo[2.1.1]hexan-4-yl)imidazo[1,2-a]pyridine-6-carboxamide trifluoroacetate] was 0.0048 µM; that for `CCCOc1nc(C(=O)Nc2cccnc2OC)cn2cc(C34CCC(C)(C3)OC4)nc12` (stereo not drawn) [Example 275, N-(2-methoxypyridin-3-yl)-2-(1-methyl-2-oxabicyclo[2.2.1]heptan-4-yl)-8-propoxyimidazo[1,2-a]pyrazine-6-carboxamide trifluoroacetate] was 0.0007 µM; that for `Cc1cnc2c(NC(=O)c3cn4cc(C56COC(C)(C5)C6)nc4c(F)c3OC(C)C)cnn2c1` [Example 292, 8-Fluoro-7-isopropoxy-2-(1-methyl-2-oxabicyclo[2.1.1]hexan-4-yl)-N-(6-methylpyrazolo[1,5-a]pyrimidin-3-yl)imidazo[1,2-a]pyridine-6-carboxamide trifluoroacetate] was 0.0026 µM.

By IC50 is commonly meant the concentration that gives 50% inhibition. Low readings indicate greater potency, high ones weaker potency.
